Reference: patent US12037324B2, “Biarylmethyl heterocycles” (Université de Montréal, priority 2016, dated 2024)

Columns and labels:
[1] = molecular target: T1, hAT1R (Homo sapiens, UniProt P30556); test: cell-based
T1 sequence (P30556 1-359): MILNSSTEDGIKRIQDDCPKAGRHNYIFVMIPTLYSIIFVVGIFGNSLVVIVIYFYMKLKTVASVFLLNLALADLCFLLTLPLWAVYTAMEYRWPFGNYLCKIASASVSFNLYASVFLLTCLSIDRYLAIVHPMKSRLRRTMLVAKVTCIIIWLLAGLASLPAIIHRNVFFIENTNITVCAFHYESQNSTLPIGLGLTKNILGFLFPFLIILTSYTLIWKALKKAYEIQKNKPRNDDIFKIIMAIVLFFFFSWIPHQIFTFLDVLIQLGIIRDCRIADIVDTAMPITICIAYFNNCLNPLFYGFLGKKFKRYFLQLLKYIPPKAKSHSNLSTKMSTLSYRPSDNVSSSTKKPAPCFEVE

[2] = molecular target: T2, AGTR1 (Homo sapiens, UniProt P30556); test: DiscoveRx IP1 accumulation assay (HTRF), agonist mode, Pathunter CHO-K1 AGTR1 β-arrestin cell line; assay type: cell-based; details: for EC50: read-out: IP-1 EC50
T2 construct: host or cells: Pathunter CHO-K1 AGTR1 β-arrestin cell line (CHO-K1)
T2 sequence (P30556 1-359): T1 sequence (P30556 1-359)
In short: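 Agonist mode in CHO-K1 AGTR1 β-arrestin cells plated 14-16 h before; compounds at varying concentrations for 90 min at 37° C, IP1 accumulation read by HTRF (D2-conjugate and anti-IP1 cryptate, 20 min room temperature). EC50 from 4-parameter logistic fit; activity given as percentage of maximal AII effect.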

[3] = molecular target: T2, AGTR1; test: DiscoveRx β-arrestin2 recruitment assay (enzyme complementation, Pathunter CHO-K1 AGTR1 β-arrestin cell line); assay type: cell-based; details: DiscoveRx β-arrestin2 recruitment; for DiscoveRx β-arrestin2 Ymax (%): maximal response
In short: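 CHO-K1 cells expressing AGTR1 with β-arrestin2 enzyme-complementation reporter, plated 14-16 h ahead in 1% serum medium, then exposed to compounds for 90 min at 37° C. Chemiluminescence read after 1 h detection. EC50 (agonist) or IC50 (antagonist) from 4-parameter logistic fit; activity as percentage of All maximal effect.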

[4] = molecular target: T1, hAT1R; test: cell-based; details: agonist mode; for EC50: read-out: BRET P63 EC50
[5] = molecular target: T1, hAT1R; test: BRET β-arrestin2 biosensor assay, higher receptor expression (hAT1R 5 ng/well), HEK293 cells; assay type: cell-based; details: for EC50: High AT1R Expression
[6] = section of the 42nd table ending at r951, example numbering restarts after the DiscoveRx section, read-out: β-arrestin2 EC50
[7] = Low AT1R Expression, read-out: BRET β-Arrestin2 Low AT1R Expression EC50

Row | Structure (SMILES) | EC50 [1, 6] [nM] | IP-1 Ymax (%) [2] [%] | EC50 [2] [nM] | EC50 [3] [nM] | DiscoveRx β-arrestin2 Ymax (%) [3] [%] | BRET P63 Ymax [4] [%] | EC50 [4] [nM] | BRET β-Arrestin2 High AT1R Expression Ymax (%) [5] [%] | EC50 [5] [nM] | EC50 [1, 7] [nM] | BRET β-Arrestin2 Low AT1R Expression Ymax (%) ([1]; Low AT1R Expression)
1 | CCc1nc2c(C)cc(C)nc2n1Cc1ccc(-c2cc(-c3cn(CC)nn3)ccc2-c2nnn[nH]2)cc1 [Example 234, 2-Ethyl-3-((5′-(1-ethyl-1H-1,2,3-triazol-4-yl)-2′-(1H-tetrazol-5-yl)-[1,1′-biphenyl]-4-yl)methyl)-5,7-dimethyl-3H-imidazo[4,5-b]pyridine] | 12.2 | 18.8 | 19.3 | 9.2 | 59.9 | 37.1 | 28.2 | 93.3 | 3.4 | – | –
2 | CCc1nc2c(C)cc(C)nc2n1Cc1ccc(-c2cc(Oc3ncccc3F)ccc2-c2nn[nH]n2)cc1 [Example 253] | 46 | 18.7 | 133 | 31.2 | 37.2 | 12.6 | 38.3 | 85.3 | 17.9 | – | –
3 | CCc1nc2c(C)cc(C)nc2n1Cc1ccc(-c2cc(-c3ccc(CO)cc3)ccc2-c2nnn[nH]2)cn1 [Example 180] | 178 | 27.5 | 226 | 51.9 | 40.4 | 14.9 | 210 | 85.3 | 50.8 | – | –
4 | CCc1nc2c(C)cc(C)nc2n1Cc1ccc(-c2cc(Oc3cc(F)ccn3)ccc2-c2nn[nH]n2)cc1 [Example 254] | 59.1 | 30.0 | 177 | 35.8 | 26.9 | 7.1 | 39.9 | 75.6 | 20 | – | –
5 | CCc1nc2c(C)cc(C)nc2n1Cc1ccc(-c2cc(-c3cccc(C)n3)ccc2-c2nn[nH]n2)cc1 [Example 59] | – | 10.4 | 21.9 | 12.5 | 29.5 | – | > 10000 | 52.1 | 14 | > 10000 | –
6 | CCc1nc2c(C)cc(C)nc2n1Cc1ccc(-c2cc(-c3ccccc3)ccc2-c2nn[nH]n2)cc1 [Example 4] | – | 9.8 | 19 | 7.5 | 48.9 | 13.0 | 4.8 | 95.4 | 3.8 | 8.2 | 69.3
7 | CCc1nc2c(C)cc(C)nc2n1Cc1ccc(-c2cc(-n3cc(C4CCCC4)nn3)ccc2-c2nnn[nH]2)cc1 [Example 230] | 140 | 12.7 | 340 | 63.1 | 16.7 | – | > 100000 | 53.5 | 61.2 | – | –
8 | CCCCC1=NC2(CCOC2)C(=O)N1Cc1ccc(-c2cc(-c3ccccc3)ccc2-c2nnn[nH]2)cc1 (single isomer, unassigned) [Example 146] | – | 8.3 | 76.2 | 31.6 | 34.0 | – | > 100000 | 85.6 | 38.2 | 52.6 | 35.0
9 | CCc1nc2c(C)cc(C)nc2n1Cc1ccc(-c2cc(-c3cccc(C(F)(F)F)n3)ccc2-c2nn[nH]n2)cc1 [Example 61] | – | 9.8 | 150 | 31.5 | 43.7 | 6.4 | 22.3 | 81.4 | 16.1 | 108 | 38.2
10 | CCc1nc2c(C)cc(C)nc2n1Cc1ccc(-c2cc(-c3ccc(CO)cc3)ccc2-c2nn[nH]n2)cc1 [Example 63] | – | 21.4 | 51.3 | 10.2 | 26.1 | 12.4 | 23.2 | 76.6 | 7.5 | 26.5 | 59.3
11 | CCc1nc2c(C)cc(C)nc2n1Cc1ccc(-c2cc(-c3cccc(C)c3)ccc2C(=O)O)cn1 [Example 195, 3-(6-((2-ethyl-5,7-dimethyl-3H-imidazo[4,5-b]pyridin-3-yl)methyl)pyridin-3-yl)-3′-methylbiphenyl-4-carboxylic acid] | 282 | 5.3 | 358 | 694 | 77.6 | 13.6 | 264 | 87.0 | 101 | – | –
12 | CCc1nc2c(C)cc(C)nc2n1Cc1ccc(-c2cc(Oc3cncc(C)c3)ccc2-c2nn[nH]n2)cc1 [Example 260] | 49.9 | 18.5 | 175 | 51.7 | 36.4 | – | > 100000 | 87.9 | 7.8 | – | –
13 | CCc1nc2c(C)cc(C)nc2n1Cc1ccc(-c2cc(N3CCCC(F)(F)C3)ccc2-c2nn[nH]n2)cc1 [Example 83] | – | 9.0 | 26.9 | 23.9 | 40.5 | 8.2 | 54.8 | 87.3 | 52.1 | 152 | 43.1
14 | CCCCC1=NC2(CCCC2)C(=O)N1Cc1ccc(-c2cc(-c3ccccc3)ccc2-c2nn[nH]n2)cc1 [Example 33] | – | 3.3 | 80.8 | 9.7 | 29.9 | – | > 10000 | 83.0 | 16.5 | 26.7 | 27.5
15 | CCc1nc2c(C)cc(C)nc2n1Cc1ccc(-c2cc(Oc3ccccc3F)ccc2-c2noc(=O)[nH]2)cc1 [Example 214, 3-(4′-((2-Ethyl-5,7-dimethyl-3H-imidazo[4,5-b]pyridin-3-yl)methyl)-5-(2-fluorophenoxy)-[1,1′-biphenyl]-2-yl)-1,2,4-oxadiazol-5(4H)-one] | 15.9 | 50.0 | 89.6 | 76.1 | 74.1 | 43.3 | 35.6 | 86.5 | 4.2 | – | –
